# Results reported in ChEMBL document CHEMBL3044982, “Cross-resistance, inheritance and biochemical mechanisms of imidacloprid resistance in B-biotype Bemisia tabaci” (2009).
# Assays:
# Assay type in all cases: functional
# Bemisia tabaci [1] = experiment: Synergistic ratio of LC50 for adult female Bemisia tabaci B-biotype NJ-Imi (sweet potato whitefly) (G30) to LC50 for adult female Bemisia tabaci B-biotype NJ in presence of 100 mg/L GSH depleter, DEM
# Bemisia tabaci [2] = experiment: Synergistic ratio of LC50 for adult female Bemisia tabaci B-biotype NJ (sweet potato whitefly) to LC50 for adult female Bemisia tabaci B-biotype NJ in presence of 100 mg/L esterase inhibitor, DEF
# Bemisia tabaci [3] = experiment: Synergistic ratio of LC50 for adult female Bemisia tabaci B-biotype NJ-Imi (sweet potato whitefly) (G15) to LC50 for adult female Bemisia tabaci B-biotype NJ in presence of 100 mg/L GSH depleter, DEM
# Bemisia tabaci [4] = experiment: Resistance factor, ratio of LC50 for adult female Bemisia tabaci B-biotype NJ-Imi (sweet potato whitefly) (G30) to LC50 for adult female B-type Bemisia tabaci NJ
# Bemisia tabaci [5] = experiment: Insecticidal activity against adult female Bemisia tabaci B-biotype NJ-Imi (sweet potato whitefly) (G30) in cotton leaf discs assessed as mortality treated for 10 secs prior to adult infestation measured after 72 hr by leaf-dip bioassay in presence of 100 mg/L GSH depleter, DEM; conditions: foliar
# Bemisia tabaci [6] = experiment: (§1) Insecticidal activity against adult male Bemisia tabaci B-biotype NJ-Imi (sweet potato whitefly) (G30) in cotton leaf discs assessed as mortality treated for 10 secs prior to adult infestation measured after 72 hr by leaf-dip bioassay; conditions: foliar
# Bemisia tabaci [7] = experiment: (§2) Insecticidal activity against adult female Bemisia tabaci B-biotype NJ-Imi (sweet potato whitefly) (G30) in cotton leaf discs assessed as mortality treated for 10 secs prior to adult infestation measured after 72 hr by leaf-dip bioassay in presence of 100 mg/L esterase inhibitor, DEF; conditions: foliar
# Bemisia tabaci [8] = experiment: as §2, with “cytochrome P450 monoxygenase” for “esterase”, “PBO” for “DEF”; conditions: foliar
# Bemisia tabaci [9] = experiment: Insecticidal activity against adult female imidacloprid-susceptible Bemisia tabaci B-biotype NJ (sweet potato whitefly) in cotton leaf discs assessed as mortality treated for 10 secs prior to adult infestation measured after 72 hr by leaf-dip bioassay; conditions: foliar
# Bemisia tabaci [10] = experiment: Resistance factor, ratio of LC50 for female Bemisia tabaci B-biotype NJ-Imi F1 (sweet potato whitefly) progeny to LC50 for adult female B-type Bemisia tabaci NJ
# Bemisia tabaci [11] = experiment: Synergistic ratio of LC50 for adult female Bemisia tabaci B-biotype NJ-Imi (sweet potato whitefly) (G30)to LC50 for adult female Bemisia tabaci B-biotype NJ in presence of 100 mg/L esterase inhibitor, DEF
# Bemisia tabaci [12] = experiment: Synergistic ratio of LC50 for adult female Bemisia tabaci B-biotype NJ (sweet potato whitefly) to LC50 for adult female Bemisia tabaci B-biotype NJ in presence of 100 mg/L GSH depleter, DEM
# Bemisia tabaci [13] = experiment: Synergistic ratio of LC50 for adult female Bemisia tabaci B-biotype NJ-Imi (sweet potato whitefly) (G30) to LC50 for adult female Bemisia tabaci B-biotype NJ in presence of 100 mg/L cytochrome P450 monoxygenase inhibitor, PBO
# Bemisia tabaci [14] = experiment: as §1, with “female F1 progeny generated from reciprocal cross between female” for “adult male”, “with male Bemisia tabaci B-biotype NJ” for “(G30)”; conditions: foliar
# Bemisia tabaci [15] = experiment: Insecticidal activity against adult female Bemisia tabaci B-biotype NJ-Imi (sweet potato whitefly) (G15) in cotton leaf discs assessed as mortality treated for 10 secs prior to adult infestation measured after 72 hr by leaf-dip bioassay in presence of 100 mg/L GSH depleter, DEM; conditions: foliar
# Bemisia tabaci [16] = experiment: Synergistic ratio of LC50 for adult female Bemisia tabaci B-biotype NJ-Imi (sweet potato whitefly) (G15)to LC50 for adult female Bemisia tabaci B-biotype NJ in presence of 100 mg/L esterase inhibitor, DEF
# Bemisia tabaci [17] = experiment: (§3) Insecticidal activity against adult female Bemisia tabaci B-biotype NJ-Imi (sweet potato whitefly) (G15) in cotton leaf discs assessed as mortality treated for 10 secs prior to adult infestation measured after 72 hr by leaf-dip bioassay in presence of 100 mg/L esterase inhibitor, DEF; conditions: foliar
# Bemisia tabaci [18] = experiment: Synergistic ratio of LC50 for adult female Bemisia tabaci B-biotype NJ-Imi (sweet potato whitefly) (G15) to LC50 for adult female Bemisia tabaci B-biotype NJ in presence of 100 mg/L cytochrome P450 monoxygenase inhibitor, PBO
# Bemisia tabaci [19] = experiment: Insecticidal activity against female F1' progeny generated from reciprocal cross between male B-biotype Bemisia tabaci NJ-Imi (sweet potato whitefly) with female B-biotype Bemisia tabaci NJ in cotton leaf discs assessed as mortality treated for 10 secs prior to adult infestation measured after 72 hr by leaf-dip bioassay; conditions: foliar
# Bemisia tabaci [20] = experiment: Insecticidal activity against adult female Bemisia tabaci B-biotype NJ (sweet potato whitefly) in cotton leaf discs assessed as mortality treated for 10 secs prior to adult infestation measured after 72 hr by leaf-dip bioassay in presence of 100 mg/L esterase inhibitor, DEF; conditions: foliar
# Bemisia tabaci [21] = experiment: as §3, with “cytochrome P450 monoxygenase” for “esterase”, “PBO” for “DEF”; conditions: foliar
# Bemisia tabaci [22] = experiment: Resistance factor, ratio of LC50 for adult female Bemisia tabaci B-biotype NJ-Imi (sweet potato whitefly) (G15) to LC50 for adult female B-type Bemisia tabaci NJ
# Bemisia tabaci [23] = experiment: Insecticidal activity against adult female Bemisia tabaci B-biotype NJ (sweet potato whitefly) in cotton leaf discs assessed as mortality treated for 10 secs prior to adult infestation measured after 72 hr by leaf-dip bioassay in presence of 100 mg/L GSH depleter, DEM; conditions: foliar
# Bemisia tabaci [24] = experiment: Resistance factor, ratio of LC50 for adult male Bemisia tabaci B-biotype NJ-Imi (sweet potato whitefly) (G30) to LC50 for adult female B-type Bemisia tabaci NJ
# Bemisia tabaci [25] = experiment: Synergistic ratio of LC50 for adult female Bemisia tabaci B-biotype NJ (sweet potato whitefly) to LC50 for adult female Bemisia tabaci B-biotype NJ in presence of 100 mg/L cytochrome P450 monoxygenase inhibitor, PBO
# Bemisia tabaci [26] = experiment: Resistance factor, ratio of LC50 for female B-biotype Bemisia tabaci NJ-Imi F1' (sweet potato whitefly) progeny to LC50 for adult female B-type Bemisia tabaci NJ
# Bemisia tabaci [27] = experiment: Insecticidal activity against adult female Bemisia tabaci B-biotype NJ (sweet potato whitefly) in cotton leaf discs assessed as mortality treated for 10 secs prior to adult infestation measured after 72 hr by leaf-dip bioassay in presence of 100 mg/L cytochrome P450 monoxygenase inhibitor, PBO; conditions: foliar
# Bemisia tabaci [28] = experiment: Insecticidal activity against adult female imidacloprid-resistant Bemisia tabaci B-biotype NJ-Imi (sweet potato whitefly) (G15) in cotton leaf discs assessed as mortality treated for 10 secs prior to adult infestation measured after 72 hr by leaf-dip bioassay; conditions: foliar
# Bemisia tabaci [29] = experiment: Insecticidal activity against adult female imidacloprid-resistant Bemisia tabaci B-biotype NJ-Imi (sweet potato whitefly) (G30) in cotton leaf discs assessed as mortality treated for 10 secs prior to adult infestation measured after 72 hr by leaf-dip bioassay; conditions: foliar
smiles,measurement,setting,value
O=[N+]([O-])/N=C1\NCCN1Cc1ccc(Cl)nc1 [IMIDACLOPRID],RatioLC50,Bemisia tabaci [1],1.4
same,RatioLC50,Bemisia tabaci [2],2.5
same,RatioLC50,Bemisia tabaci [3],0.9
same,RatioLC50,Bemisia tabaci [4],490
same,LC50,Bemisia tabaci [5],357 µg/mL
same,LC50,Bemisia tabaci [6],411 µg/mL
same,LC50,Bemisia tabaci [7],371 µg/mL
same,LC50,Bemisia tabaci [8],231 µg/mL
same,LC50,Bemisia tabaci [9],0.99 µg/mL
same,RatioLC50,Bemisia tabaci [10],31
same,RatioLC50,Bemisia tabaci [11],1.3
same,RatioLC50,Bemisia tabaci [12],0.8
same,RatioLC50,Bemisia tabaci [13],2.1
same,LC50,Bemisia tabaci [14],30.9 µg/mL
same,LC50,Bemisia tabaci [15],273 µg/mL
same,RatioLC50,Bemisia tabaci [16],2.7
same,LC50,Bemisia tabaci [17],94 µg/mL
same,RatioLC50,Bemisia tabaci [18],2.5
same,LC50,Bemisia tabaci [19],28.6 µg/mL
same,LC50,Bemisia tabaci [20],0.4 µg/mL
same,LC50,Bemisia tabaci [21],102 µg/mL
same,RatioLC50,Bemisia tabaci [22],257
same,LC50,Bemisia tabaci [23],1.22 µg/mL
same,RatioLC50,Bemisia tabaci [24],415
same,RatioLC50,Bemisia tabaci [25],1.1
same,RatioLC50,Bemisia tabaci [26],29
same,LC50,Bemisia tabaci [27],0.91 µg/mL
same,LC50,Bemisia tabaci [28],254 µg/mL
same,LC50,Bemisia tabaci [29],485 µg/mL
CCN(Cc1ccc(Cl)nc1)/C(=C/[N+](=O)[O-])NC [NITENPYRAM],RatioLC50,Bemisia tabaci [4],94
same,LC50,Bemisia tabaci [9],0.99 µg/mL
same,LC50,Bemisia tabaci [29],93 µg/mL
CC[C@H](C)[C@H]1O[C@]2(C=C[C@@H]1C)C[C@@H]1C[C@@H](C/C=C(\C)[C@@H](O[C@H]3C[C@H](OC)[C@@H](O[C@H]4C[C@H](OC)[C@@H](O)[C@H](C)O4)[C@H](C)O3)[C@@H](C)/C=C/C=C3\CO[C@@H]4[C@H](O)C(C)=C[C@@H](C(=O)O1)[C@]34O)O2.CO[C@H]1C[C@H](O[C@H]2[C@H](C)O[C@@H](O[C@@H]3/C(C)=C/C[C@@H]4C[C@@H](C[C@]5(C=C[C@H](C)[C@@H](C(C)C)O5)O4)OC(=O)[C@@H]4C=C(C)[C@@H](O)[C@H]5OC/C(=C\C=C\[C@@H]3C)[C@]54O)C[C@@H]2OC)O[C@@H](C)[C@@H]1O [ABAMECTIN],RatioLC50,Bemisia tabaci [4],1
same,LC50,Bemisia tabaci [9],0.8 µg/mL
same,LC50,Bemisia tabaci [29],0.92 µg/mL
CN(C)C(CSS(=O)(=O)[O-])CSS(=O)(=O)O.[Na+] [MONOSULTAP],RatioLC50,Bemisia tabaci [4],7
same,LC50,Bemisia tabaci [9],43.9 µg/mL
same,RatioLC50,Bemisia tabaci [22],7
same,LC50,Bemisia tabaci [28],297 µg/mL
same,LC50,Bemisia tabaci [29],294 µg/mL
CC1(C)C(C=C(Cl)Cl)C1C(=O)OC(C#N)c1cccc(Oc2ccccc2)c1 (stereo not drawn) [ALPHA-CYPERMETHRIN],RatioLC50,Bemisia tabaci [4],1
same,LC50,Bemisia tabaci [9],226 µg/mL
same,RatioLC50,Bemisia tabaci [22],1
same,LC50,Bemisia tabaci [28],230 µg/mL
same,LC50,Bemisia tabaci [29],263 µg/mL
CN(C)C(CSC(N)=O)CSC(N)=O [CARTAP],RatioLC50,Bemisia tabaci [4],11
same,LC50,Bemisia tabaci [9],1.55 µg/mL
same,LC50,Bemisia tabaci [29],17.4 µg/mL
C/C(=N\C#N)N(C)Cc1ccc(Cl)nc1 [ACETAMIPRID],RatioLC50,Bemisia tabaci [4],143
same,LC50,Bemisia tabaci [9],1.3 µg/mL
same,RatioLC50,Bemisia tabaci [22],49
same,LC50,Bemisia tabaci [28],63 µg/mL
same,LC50,Bemisia tabaci [29],186 µg/mL
N#C/N=C1\SCCN1Cc1ccc(Cl)nc1 [THIACLOPRID],RatioLC50,Bemisia tabaci [4],37
same,LC50,Bemisia tabaci [9],1.02 µg/mL
same,LC50,Bemisia tabaci [29],37.3 µg/mL
CN1COCN(Cc2cnc(Cl)s2)/C1=N\[N+](=O)[O-] [THIAMETHOXAM],RatioLC50,Bemisia tabaci [4],243
same,LC50,Bemisia tabaci [9],1.19 µg/mL
same,RatioLC50,Bemisia tabaci [22],92
same,LC50,Bemisia tabaci [28],110 µg/mL
same,LC50,Bemisia tabaci [29],289 µg/mL
